Assay results taken from PubChem BioAssay AID1259407 (Chemical Carcinogenesis Research Information System (CCRIS), 2018).
Active and inactive are the calls of the source. No rule for the calls is given here.

Tested on: CCRIS mutagenicity, Ames/micronucleus/aberration tests
Assay: CCRIS mutagenicity studies
[1] = Test System: AMES SALMONELLA TYPHIMURIUM, Strain/Indicator: TA98, Metabolic Activation: RAT, LIVER, S-9, AROCLOR 1254, Method: PREINCUBATION
[2] = Test System: AMES SALMONELLA TYPHIMURIUM, Strain/Indicator: TA98, Metabolic Activation: NONE, Method: STANDARD PLATE
[3] = Test System: AMES SALMONELLA TYPHIMURIUM, Strain/Indicator: TA100, Metabolic Activation: NONE, Method: STANDARD PLATE

With COc1ccccc1O the mutagenic call (End Point: IN VITRO CHROMOSOMAL ABERRATIONS, Test System: SYRIAN HAMSTER EMBRYO (SHE) CELLS, Metabolic Activation: NONE) was “active; positive (structural changes)”, the mutagenic call (Test System: AMES SALMONELLA TYPHIMURIUM, Strain/Indicator: TA97, Metabolic Activation: HAMSTER, LIVER, S-9, AROCLOR 1254 (10 OR 30%), Method: VAPOR CHAMBER) was “inactive; negative” and the mutagenic call (Test System: AMES SALMONELLA TYPHIMURIUM, Strain/Indicator: TA97, Metabolic Activation: NONE, Method: VAPOR CHAMBER) was “inactive; negative”. For the same compound, the mutagenic call (Test System: AMES SALMONELLA TYPHIMURIUM, Strain/Indicator: TA97, Metabolic Activation: RAT, LIVER, S-9, AROCLOR 1254 (5, 10 OR 30%), Method: VAPOR CHAMBER) was “inactive; negative”, the mutagenic call (Test System: AMES SALMONELLA TYPHIMURIUM, Strain/Indicator: TA98, Metabolic Activation: HAMSTER, LIVER, S-9, AROCLOR 1254 (10 OR 30%), Method: VAPOR CHAMBER) was “inactive; negative” and the mutagenic call (Test System: AMES SALMONELLA TYPHIMURIUM, Strain/Indicator: TA98, Metabolic Activation: HAMSTER, LIVER, S-9, AROCLOR 1254 (30%), Method: PREINCUBATION) was “inactive; negative”. The mutagenic call (Test System: AMES SALMONELLA TYPHIMURIUM, Strain/Indicator: TA98, Metabolic Activation: NONE, Method: PREINCUBATION) was “inactive; negative”, the mutagenic call (Test System: AMES SALMONELLA TYPHIMURIUM, Strain/Indicator: TA98, Metabolic Activation: NONE, Method: VAPOR CHAMBER) was “inactive; negative” and the mutagenic call (Test System: AMES SALMONELLA TYPHIMURIUM, Strain/Indicator: TA98, Metabolic Activation: RAT, LIVER, S-9, AROCLOR 1254 (10 OR 30%), Method: VAPOR CHAMBER) was “inactive; negative”. For the same compound, the mutagenic call (Test System: AMES SALMONELLA TYPHIMURIUM, Strain/Indicator: TA98, Metabolic Activation: RAT, LIVER, S-9, AROCLOR 1254 (30%), Method: PREINCUBATION) was “inactive; negative”, the mutagenic call [1] was “inactive; negative” and the mutagenic call (Test System: AMES SALMONELLA TYPHIMURIUM, Strain/Indicator: TA100, Metabolic Activation: HAMSTER, LIVER, S-9, AROCLOR 1254 (5, 10 OR 30%), Method: VAPOR CHAMBER) was “inactive; negative”. The mutagenic call (Test System: AMES SALMONELLA TYPHIMURIUM, Strain/Indicator: TA100, Metabolic Activation: HAMSTER, LIVER, S-9, AROCLOR 1254 (30%), Method: PREINCUBATION) was “inactive; negative”, the mutagenic call (Test System: AMES SALMONELLA TYPHIMURIUM, Strain/Indicator: TA100, Metabolic Activation: NONE, Method: PREINCUBATION) was “inactive; negative” and the mutagenic call (Test System: AMES SALMONELLA TYPHIMURIUM, Strain/Indicator: TA100, Metabolic Activation: NONE, Method: VAPOR CHAMBER) was “inactive; negative”. For the same compound, the mutagenic call (Test System: AMES SALMONELLA TYPHIMURIUM, Strain/Indicator: TA100, Metabolic Activation: RAT, LIVER, S-9, AROCLOR 1254 (5, 10 OR 30%), Method: VAPOR CHAMBER) was “inactive; negative”, the mutagenic call (Test System: AMES SALMONELLA TYPHIMURIUM, Strain/Indicator: TA100, Metabolic Activation: RAT, LIVER, S-9, AROCLOR 1254 (30%), Method: PREINCUBATION) was “inactive; negative” and the mutagenic call (Test System: AMES SALMONELLA TYPHIMURIUM, Strain/Indicator: TA100, Metabolic Activation: RAT, LIVER, S-9, AROCLOR 1254, Method: PREINCUBATION) was “inactive; negative”. For the same compound, the mutagenic call (Test System: AMES SALMONELLA TYPHIMURIUM, Strain/Indicator: TA102, Metabolic Activation: NONE, Method: PREINCUBATION) was “inactive; negative”, the mutagenic call (Test System: AMES SALMONELLA TYPHIMURIUM, Strain/Indicator: TA102, Metabolic Activation: RAT, LIVER, S-9, AROCLOR 1254, Method: PREINCUBATION) was “inactive; negative” and the mutagenic call (Test System: AMES SALMONELLA TYPHIMURIUM, Strain/Indicator: TA1535, Metabolic Activation: HAMSTER, LIVER, S-9, AROCLOR 1254 (10 OR 30%), Method: VAPOR CHAMBER) was “inactive; negative”. For the same compound, the mutagenic call (Test System: AMES SALMONELLA TYPHIMURIUM, Strain/Indicator: TA1535, Metabolic Activation: NONE, Method: VAPOR CHAMBER) was “inactive; negative” and the mutagenic call (Test System: AMES SALMONELLA TYPHIMURIUM, Strain/Indicator: TA1535, Metabolic Activation: RAT, LIVER, S-9, AROCLOR 1254 (10 OR 30%), Method: VAPOR CHAMBER) was “inactive; negative”.
In the case of C=C(C)C(=O)OCC(O)COc1ccc(C(C)(C)c2ccc(OCC(O)COC(=O)C(=C)C)cc2)cc1 (centres undefined), the mutagenic call (Test System: AMES SALMONELLA TYPHIMURIUM, Strain/Indicator: TA97A, Metabolic Activation: NONE, Method: STANDARD PLATE) is reported as “inactive; negative”, the mutagenic call (Test System: AMES SALMONELLA TYPHIMURIUM, Strain/Indicator: TA97A, Metabolic Activation: RAT LIVER S-9, PHENOBARBITAL AND BETA-NAPHTHAFLAVONE, Method: STANDARD PLATE) is reported as “inactive; negative” and the mutagenic call [2] is reported as “inactive; negative”. For the same compound, the mutagenic call (Test System: AMES SALMONELLA TYPHIMURIUM, Strain/Indicator: TA98, Metabolic Activation: RAT LIVER S-9, PHENOBARBITAL AND BETA-NAPHTHAFLAVONE, Method: STANDARD PLATE) was “inactive; negative”, the mutagenic call [3] was “inactive; negative” and the mutagenic call (Test System: AMES SALMONELLA TYPHIMURIUM, Strain/Indicator: TA100, Metabolic Activation: RAT LIVER S-9, PHENOBARBITAL AND BETA-NAPHTHAFLAVONE, Method: STANDARD PLATE) was “inactive; negative”. The mutagenic call (Test System: AMES SALMONELLA TYPHIMURIUM, Strain/Indicator: TA102, Metabolic Activation: NONE, Method: STANDARD PLATE) was “inactive; negative”, the mutagenic call (Test System: AMES SALMONELLA TYPHIMURIUM, Strain/Indicator: TA102, Metabolic Activation: RAT LIVER S-9, PHENOBARBITAL AND BETA-NAPHTHAFLAVONE, Method: STANDARD PLATE) was “inactive; negative” and the mutagenic call (Test System: CHINESE HAMSTER OVARY V-79, Strain/Indicator: V79 (HPRT)/6-THIOGUANINE, Metabolic Activation: NONE) was “inactive; negative”.
CC1CNc2cc(O)c3ccc4ccccc4c3c21 (centres undefined) was tested, and the mutagenic call (Test System: AMES SALMONELLA TYPHIMURIUM, Strain/Indicator: TA98, Metabolic Activation: RAT, LIVER, S-9, AROCLOR 1254, Method: STANDARD PLATE) was “active; positive” and the mutagenic call (Test System: AMES SALMONELLA TYPHIMURIUM, Strain/Indicator: TA98, Metabolic Activation: RAT, LIVER, S-9, AROCLOR, Method: STANDARD PLATE) was “active; positive”.
In the case of Cc1cccc(Nc2cc(Cl)nc(SCC(=O)O)n2)c1C, the mutagenic call (Test System: AMES SALMONELLA TYPHIMURIUM, Strain/Indicator: TA98, Metabolic Activation: NONE) is reported as “inactive; negative”, the mutagenic call (Test System: AMES SALMONELLA TYPHIMURIUM, Strain/Indicator: TA98, Metabolic Activation: RAT, LIVER, S-9, AROCLOR 1254) is reported as “inactive; negative” and the mutagenic call (Test System: AMES SALMONELLA TYPHIMURIUM, Strain/Indicator: TA102, Metabolic Activation: NONE) is reported as “inactive; negative”. The mutagenic call (Test System: AMES SALMONELLA TYPHIMURIUM, Strain/Indicator: TA102, Metabolic Activation: RAT, LIVER, S-9, AROCLOR 1254) was “inactive; negative”, the mutagenic call (Test System: AMES SALMONELLA TYPHIMURIUM, Strain/Indicator: TA104, Metabolic Activation: NONE) was “inactive; negative” and the mutagenic call (Test System: AMES SALMONELLA TYPHIMURIUM, Strain/Indicator: TA104, Metabolic Activation: RAT, LIVER, S-9, AROCLOR 1254) was “inactive; negative”. For the same compound, the mutagenic call (Test System: UDS RAT HEPATOCYTES, Strain/Indicator: BROMODEOXYURIDINE INCORP, Metabolic Activation: NONE) was “active; positive”, the mutagenic call (Test System: UDS RAT HEPATOCYTES, Strain/Indicator: BROMODEOXYURIDINE INCORP, Metabolic Activation: NONE, Method: FLOW CYTOMETRIC ANALYSIS) was “inactive; negative” and the mutagenic call (Test System: UDS RAT HEPATOCYTES, Strain/Indicator: THY INCORP, Metabolic Activation: NONE, Method: AUTORADIOGRAPHY) was “inactive; negative”. For the same compound, the mutagenic call (Test System: UDS RAT HEPATOCYTES, Strain/Indicator: THY INCORP, Metabolic Activation: NONE, Method: LIQUID SCINTILLATION COUNTING) was “active; positive”.
In the case of Cn1c(N)nc2ccc(C#N)cc21, the mutagenic call [1] is reported as “active; positive”.
For O=[N+]([O-])c1ccc2c3c(c(O)ccc13)-c1ccccc1-2, the mutagenic call (Test System: AMES SALMONELLA TYPHIMURIUM, Strain/Indicator: TA98(1,8-DNP6), Metabolic Activation: NONE, Method: STANDARD PLATE) was “inactive; negative”, the mutagenic call (Test System: AMES SALMONELLA TYPHIMURIUM, Strain/Indicator: TA98(NR), Metabolic Activation: NONE, Method: STANDARD PLATE) was “inactive; negative” and the mutagenic call [2] was “active; positive”. For the same compound, the mutagenic call (Test System: AMES SALMONELLA TYPHIMURIUM, Strain/Indicator: TA100(NR), Metabolic Activation: NONE, Method: STANDARD PLATE) was “inactive; negative”, the mutagenic call (Test System: AMES SALMONELLA TYPHIMURIUM, Strain/Indicator: TA100(TN5-1,8-DNP1012), Metabolic Activation: NONE, Method: STANDARD PLATE) was “inactive; negative” and the mutagenic call [3] was “inactive; negative”.
Clc1cccc2cccnc12 was tested, and the mutagenic call (Test System: AMES SALMONELLA TYPHIMURIUM, Strain/Indicator: TA100, Metabolic Activation: RAT, LIVER, S-9, PHENOBARBITAL AND 5,6-BENZOFLAVONE, Method: PREINCUBATION) was “active; positive” and the mutagenic call (Test System: AMES SALMONELLA TYPHIMURIUM, Strain/Indicator: TA100, Metabolic Activation: S-9, Method: PREINCUBATION) was “inactive; negative”.
With C[C@@H]1C[C@@H]2c3cccc4[nH]cc(c34)C[C@H]2N(C)C1 the mutagenic call (Test System: AMES SALMONELLA TYPHIMURIUM, Strain/Indicator: TA100, Metabolic Activation: RAT, LIVER, S-9, AROCLOR 1254, Method: STANDARD PLATE) was “active; positive”.
